In PMC4855137, “Raffinose, a plant galactoside, inhibits Pseudomonas aeruginosa biofilm formation via binding to LecA and decreasing cellular cyclic diguanylate levels” (Scientific Reports, 2016):

Assays:
LecA (PA-IL) [1] = target: T1, LecA (PA-IL) (Pseudomonas aeruginosa, UniProt Q05097); experiment: isothermal titration calorimetry; CPMG NMR competition with raffinose; format: binding
LecA (PA-IL) [2] = target: T1, LecA (PA-IL); experiment: isothermal titration calorimetry; 1D relaxation-edited (CPMG) NMR with galactose competition; format: binding

T1 sequence (Q05097 2-122): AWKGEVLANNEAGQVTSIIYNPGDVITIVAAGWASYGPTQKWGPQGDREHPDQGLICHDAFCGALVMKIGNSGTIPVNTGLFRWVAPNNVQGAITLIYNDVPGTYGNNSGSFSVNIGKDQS

OC[C@H]1OC(O)[C@H](O)[C@@H](O)[C@H]1O (stereo partly drawn) [D-galactose]
Kd (LecA (PA-IL) [1]): 47 µM

OC[C@H]1O[C@H](OC[C@H]2O[C@H](O[C@]3(CO)O[C@H](CO)[C@@H](O)[C@@H]3O)[C@H](O)[C@@H](O)[C@@H]2O)[C@H](O)[C@@H](O)[C@H]1O [raffinose]
Kd (LecA (PA-IL) [2]): 32 µM
